Laboratory results reported in PubChem BioAssay AID2060882 (Molecular Pharmacology Branch, DTP, NCI, 2025).
Each block holds one molecule with its values, some of them ahead of it.

System: 898857-211-R-J1-PDC complex spheroids, growth % test/control
Experiment: Anticancer human tumor 898857-211-R-J1-PDC patient-derived melanoma cell line growth inhibition [RAS]
Settings: for IC50: curve of first compound; for viability, T/C: stronger effect = lower value
Procedure, shortened: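 Agents were tested in combination matrices in half-log decrements from a top concentration at or near clinical Cmax (10 microM if undetermined). Targets were multi-cell spheroids of tumour lines plus HUVEC and MSC stromal cells.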

[1] = second compound 0.00316 µM, first compound 0.000949 µM
[2] = second compound 0.00316 µM, first compound 0.003 µM
[3] = second compound 0.00316 µM, first compound 0.00949 µM
[4] = second compound 0.00316 µM, first compound 0.03 µM
[5] = second compound 0.00316 µM, first compound 0.0949 µM
[6] = second compound 0.00316 µM, first compound 0.3 µM
[7] = second compound 0.01 µM, first compound 0.000949 µM
[8] = second compound 0.01 µM, first compound 0.003 µM
[9] = second compound 0.01 µM, first compound 0.00949 µM
[10] = second compound 0.01 µM, first compound 0.03 µM
[11] = second compound 0.01 µM, first compound 0.0949 µM
[12] = second compound 0.01 µM, first compound 0.3 µM
[13] = second compound 0.0316 µM, first compound 0.000949 µM
[14] = second compound 0.0316 µM, first compound 0.003 µM
[15] = second compound 0.0316 µM, first compound 0.00949 µM
[16] = second compound 0.0316 µM, first compound 0.03 µM
[17] = second compound 0.0316 µM, first compound 0.0949 µM
[18] = second compound 0.0316 µM, first compound 0.3 µM
[19] = second compound 0.1 µM, first compound 0.000949 µM
[20] = second compound 0.1 µM, first compound 0.003 µM
[21] = second compound 0.1 µM, first compound 0.00949 µM
[22] = second compound 0.1 µM, first compound 0.03 µM
[23] = second compound 0.1 µM, first compound 0.0949 µM
[24] = second compound 0.1 µM, first compound 0.3 µM
[25] = second compound 0.316 µM, first compound 0.000949 µM
[26] = second compound 0.316 µM, first compound 0.003 µM
[27] = second compound 0.316 µM, first compound 0.00949 µM
[28] = second compound 0.316 µM, first compound 0.03 µM
[29] = second compound 0.316 µM, first compound 0.0949 µM
[30] = second compound 0.316 µM, first compound 0.3 µM
[31] = second compound 1 µM, first compound 0.000949 µM
[32] = second compound 1 µM, first compound 0.003 µM
[33] = second compound 1 µM, first compound 0.00949 µM
[34] = second compound 1 µM, first compound 0.03 µM
[35] = second compound 1 µM, first compound 0.0949 µM
[36] = second compound 1 µM, first compound 0.3 µM
[37] = second compound 0.000949 µM, first compound 0.00316 µM
[38] = second compound 0.000949 µM, first compound 0.01 µM
[39] = second compound 0.000949 µM, first compound 0.0316 µM
[40] = second compound 0.000949 µM, first compound 0.1 µM
[41] = second compound 0.000949 µM, first compound 0.316 µM
[42] = second compound 0.000949 µM, first compound 1 µM
[43] = second compound 0.003 µM, first compound 0.00316 µM
[44] = second compound 0.003 µM, first compound 0.01 µM
[45] = second compound 0.003 µM, first compound 0.0316 µM
[46] = second compound 0.003 µM, first compound 0.1 µM
[47] = second compound 0.003 µM, first compound 0.316 µM
[48] = second compound 0.003 µM, first compound 1 µM
[49] = second compound 0.00949 µM, first compound 0.00316 µM
[50] = second compound 0.00949 µM, first compound 0.01 µM
[51] = second compound 0.00949 µM, first compound 0.0316 µM
[52] = second compound 0.00949 µM, first compound 0.1 µM
[53] = second compound 0.00949 µM, first compound 0.316 µM
[54] = second compound 0.00949 µM, first compound 1 µM
[55] = second compound 0.03 µM, first compound 0.00316 µM
[56] = second compound 0.03 µM, first compound 0.01 µM
[57] = second compound 0.03 µM, first compound 0.0316 µM
[58] = second compound 0.03 µM, first compound 0.1 µM
[59] = second compound 0.03 µM, first compound 0.316 µM
[60] = second compound 0.03 µM, first compound 1 µM
[61] = second compound 0.0949 µM, first compound 0.00316 µM
[62] = second compound 0.0949 µM, first compound 0.01 µM
[63] = second compound 0.0949 µM, first compound 0.0316 µM
[64] = second compound 0.0949 µM, first compound 0.1 µM
[65] = second compound 0.0949 µM, first compound 0.316 µM
[66] = second compound 0.0949 µM, first compound 1 µM
[67] = second compound 0.3 µM, first compound 0.00316 µM
[68] = second compound 0.3 µM, first compound 0.01 µM
[69] = second compound 0.3 µM, first compound 0.0316 µM
[70] = second compound 0.3 µM, first compound 0.1 µM
[71] = second compound 0.3 µM, first compound 0.316 µM
[72] = second compound 0.3 µM, first compound 1 µM
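Also: spheroids exposed to compound for seven days before readout.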
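For viability, T/C in this document: 100% = DMSO vehicle control wells.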

IC50 (second compound 0.00316 µM): 5.36 nM | IC50 (second compound 0.01 µM): 5.18 nM | IC50 (second compound 0.0316 µM): 4.69 nM | IC50 (second compound 0.1 µM): 5.81 nM | IC50 (second compound 0.316 µM): 5.77 nM | IC50 (second compound 1 µM): 4.52 nM
SMILES: CC1(C)CCC(Nc2ncc(C(F)(F)F)c(-c3c[nH]c4c(P(C)(C)=O)c(C#N)ccc34)n2)CN1 (stereo not drawn) + C=CC(=O)N1CCN(c2nc(OCC3CCCN3C)nc3c(F)c(-c4nc(N)cc(C)c4C(F)(F)F)c(Cl)cc23)C(C)C1
viability, T/C [1]: 96.9% | viability, T/C [2]: 67.8% | viability, T/C [3]: 32.1% | viability, T/C [4]: 20.6% | viability, T/C [5]: 16.4% | viability, T/C [6]: 14.5% | viability, T/C [7]: 96.9% | viability, T/C [8]: 66.3% | viability, T/C [9]: 32.1% | viability, T/C [10]: 19.5% | viability, T/C [11]: 18.5% | viability, T/C [12]: 17.8% | viability, T/C [13]: 91.3% | viability, T/C [14]: 61.3% | viability, T/C [15]: 32% | viability, T/C [16]: 22% | viability, T/C [17]: 17.4% | viability, T/C [18]: 17.1% | viability, T/C [19]: 91.8% | viability, T/C [20]: 74.7% | viability, T/C [21]: 32% | viability, T/C [22]: 14.9% | viability, T/C [23]: 17.6% | viability, T/C [24]: 15.8% | viability, T/C [25]: 101% | viability, T/C [26]: 70.5% | viability, T/C [27]: 33.8% | viability, T/C [28]: 21.8% | viability, T/C [29]: 17.8% | viability, T/C [30]: 15% | viability, T/C [31]: 98.9% | viability, T/C [32]: 61.3% | viability, T/C [33]: 29.3% | viability, T/C [34]: 18.3% | viability, T/C [35]: 15% | viability, T/C [36]: 12.2%

IC50 (second compound 0.00316 µM): 4.67 nM | IC50 (second compound 0.01 µM): 4.95 nM | IC50 (second compound 0.0316 µM): 5.08 nM | IC50 (second compound 0.1 µM): 4.95 nM | IC50 (second compound 0.316 µM): 5.43 nM | IC50 (second compound 1 µM): 5.56 nM
SMILES: CCc1c2c(nc3ccc(O)cc13)-c1cc3c(c(=O)n1C2)COC(=O)[C@]3(O)CC + C=CC(=O)N1CCN(c2nc(OCC3CCCN3C)nc3c(F)c(-c4nc(N)cc(C)c4C(F)(F)F)c(Cl)cc23)C(C)C1
viability, T/C [1]: 95.2% | viability, T/C [2]: 64.1% | viability, T/C [3]: 27.9% | viability, T/C [4]: 8.98% | viability, T/C [5]: 7.24% | viability, T/C [6]: 8.79% | viability, T/C [7]: 89.6% | viability, T/C [8]: 67.4% | viability, T/C [9]: 27.5% | viability, T/C [10]: 10.1% | viability, T/C [11]: 7.97% | viability, T/C [12]: 8.39% | viability, T/C [13]: 87.3% | viability, T/C [14]: 69.2% | viability, T/C [15]: 27.4% | viability, T/C [16]: 8.88% | viability, T/C [17]: 8.21% | viability, T/C [18]: 8.99% | viability, T/C [19]: 93% | viability, T/C [20]: 68.7% | viability, T/C [21]: 26% | viability, T/C [22]: 8.12% | viability, T/C [23]: 7.6% | viability, T/C [24]: 8.98% | viability, T/C [25]: 98.4% | viability, T/C [26]: 73.3% | viability, T/C [27]: 28.4% | viability, T/C [28]: 9.68% | viability, T/C [29]: 9.81% | viability, T/C [30]: 8.65% | viability, T/C [31]: 98% | viability, T/C [32]: 75.5% | viability, T/C [33]: 27.8% | viability, T/C [34]: 11.4% | viability, T/C [35]: 8.78% | viability, T/C [36]: 8.26%

IC50 (second compound 0.000949 µM): 832 nM | IC50 (second compound 0.003 µM): 380 nM | IC50 (second compound 0.00949 µM): 538 nM | IC50 (second compound 0.03 µM): 561 nM | IC50 (second compound 0.0949 µM): 591 nM | IC50 (second compound 0.3 µM): 603 nM
SMILES: C=CC(=O)Nc1cc(Nc2nccc(-c3cn(C)c4ccccc34)n2)c(OC)cc1N(C)CCN(C)C + CCn1c(-c2cc(N3CCN(C)CC3)cnc2C(C)OC)c2c3cc(ccc31)-c1csc(n1)CC(NC(=O)C1CC1C)C(=O)N1CCCC(N1)C(=O)OCC(C)(C)C2
viability, T/C [37]: 101% | viability, T/C [38]: 101% | viability, T/C [39]: 106% | viability, T/C [40]: 102% | viability, T/C [41]: 73.7% | viability, T/C [42]: 45.5% | viability, T/C [43]: 99% | viability, T/C [44]: 113% | viability, T/C [45]: 97% | viability, T/C [46]: 88.9% | viability, T/C [47]: 52.4% | viability, T/C [48]: 34.9% | viability, T/C [49]: 105% | viability, T/C [50]: 112% | viability, T/C [51]: 114% | viability, T/C [52]: 88.9% | viability, T/C [53]: 65.5% | viability, T/C [54]: 33.7% | viability, T/C [55]: 102% | viability, T/C [56]: 96.2% | viability, T/C [57]: 110% | viability, T/C [58]: 91.3% | viability, T/C [59]: 64.7% | viability, T/C [60]: 35.6% | viability, T/C [61]: 106% | viability, T/C [62]: 104% | viability, T/C [63]: 101% | viability, T/C [64]: 96% | viability, T/C [65]: 60.5% | viability, T/C [66]: 41.1% | viability, T/C [67]: 125% | viability, T/C [68]: 114% | viability, T/C [69]: 102% | viability, T/C [70]: 97% | viability, T/C [71]: 64.7% | viability, T/C [72]: 36.2%

IC50 (second compound 0.000949 µM): < 3.16 nM | IC50 (second compound 0.003 µM): < 3.16 nM | IC50 (second compound 0.00949 µM): < 3.16 nM | IC50 (second compound 0.03 µM): < 3.16 nM | IC50 (second compound 0.0949 µM): < 3.16 nM | IC50 (second compound 0.3 µM): < 3.16 nM
SMILES: O=C(c1ccc(F)c(F)c1Nc1ccc(I)cc1F)N1CC(O)([C@@H]2CCCCN2)C1 + CCn1c(-c2cc(N3CCN(C)CC3)cnc2C(C)OC)c2c3cc(ccc31)-c1csc(n1)CC(NC(=O)C1CC1C)C(=O)N1CCCC(N1)C(=O)OCC(C)(C)C2
viability, T/C [37]: 39.8% | viability, T/C [38]: 24.2% | viability, T/C [39]: 16.8% | viability, T/C [40]: 13.9% | viability, T/C [41]: 13% | viability, T/C [42]: 9.63% | viability, T/C [43]: 33.1% | viability, T/C [44]: 21.3% | viability, T/C [45]: 17.5% | viability, T/C [46]: 12.4% | viability, T/C [47]: 10.3% | viability, T/C [48]: 6.63% | viability, T/C [49]: 32% | viability, T/C [50]: 20.5% | viability, T/C [51]: 17.8% | viability, T/C [52]: 14.2% | viability, T/C [53]: 11.3% | viability, T/C [54]: 3.23% | viability, T/C [55]: 24.2% | viability, T/C [56]: 20.7% | viability, T/C [57]: 17.8% | viability, T/C [58]: 12.8% | viability, T/C [59]: 7.8% | viability, T/C [60]: 2.22% | viability, T/C [61]: 24.6% | viability, T/C [62]: 20.2% | viability, T/C [63]: 14.7% | viability, T/C [64]: 10.4% | viability, T/C [65]: 3.52% | viability, T/C [66]: 1.46% | viability, T/C [67]: 24.1% | viability, T/C [68]: 19.1% | viability, T/C [69]: 13.3% | viability, T/C [70]: 8.51% | viability, T/C [71]: 3.03% | viability, T/C [72]: 1.17%
